Assay results published in ChEMBL document CHEMBL1201862, “PubChem BioAssay data set” (2004).
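Assay format: 96-well plates, 48-hour exposure. The concentration for 50% growth inhibition is given as GI50.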 Active and inactive are the calls of the source. Rule as the data show it: active = GI50 up to about 1.1 µM and inactive = higher.

Legend:
Assay in all cases: inhibition of tumour cell growth, NCI panel, 48 h
[1] = tested on: A549
[2] = tested on: SK-MEL-5
[3] = tested on: SR
[4] = tested on: CCRF-CEM
[5] = tested on: Malme-3M
[6] = tested on: M14
[7] = tested on: SF-268
[8] = tested on: IGROV-1
[9] = tested on: OVCAR-5
[10] = tested on: SNB-19
[11] = tested on: 786-0
[12] = tested on: SK-OV-3
[13] = tested on: EKVX
[14] = tested on: ACHN
[15] = tested on: DLD-1
[16] = tested on: SF-295
[17] = tested on: HT-29
[18] = tested on: OVCAR-4
[19] = tested on: MOLT-4
[20] = tested on: SK-MEL-2
[21] = tested on: HOP-62
[22] = tested on: NCI-H23
[23] = tested on: UACC-62
[24] = tested on: RPMI-8226
[25] = tested on: LOX IMVI
[26] = tested on: OVCAR-8
[27] = tested on: SW-620
[28] = tested on: DMS-114
[29] = tested on: NCI-H460
[30] = tested on: UO-31
[31] = tested on: SK-MEL-28
[32] = tested on: SNB-75
[33] = tested on: M19-MEL
[34] = tested on: SN12C
[35] = tested on: COLO 205
[36] = tested on: U-251
[37] = tested on: HCT-15
[38] = tested on: NCI-H226
[39] = tested on: KM-20L2
[40] = tested on: K562
[41] = tested on: KM12
[42] = tested on: SF-539
[43] = tested on: CAKI-1
[44] = tested on: OVCAR-3
[45] = tested on: DMS-273
[46] = tested on: RXF 631
[47] = tested on: LXFL 529
[48] = tested on: UACC-257
[49] = tested on: HCC 2998
[50] = tested on: NCI-H522
[51] = tested on: HCT-116
[52] = tested on: SNB-78
[53] = tested on: HOP-92
[54] = tested on: RXF 393
[55] = tested on: TK-10
[56] = tested on: HOP-18
[57] = tested on: A498

Cc1ccc(S(=O)(=O)c2c(N)c3nc4ccccc4n3c3nc4ccccc4nc23)cc1
GI50 [1]: > 100 µM (inactive) | GI50 [2]: > 100 µM (inactive) | GI50 [3]: > 100 µM (inactive) | GI50 [4]: > 100 µM (inactive) | GI50 [5]: > 100 µM (inactive) | GI50 [6]: > 100 µM (inactive) | GI50 [7]: > 100 µM (inactive) | GI50 [8]: > 100 µM (inactive) | GI50 [9]: > 100 µM (inactive) | GI50 [10]: > 100 µM (inactive) | GI50 [11]: 4.93 µM (inactive) | GI50 [12]: > 100 µM (inactive) | GI50 [13]: > 100 µM (inactive) | GI50 [14]: > 100 µM (inactive) | GI50 [15]: > 100 µM (inactive) | GI50 [16]: > 100 µM (inactive) | GI50 [17]: > 100 µM (inactive) | GI50 [18]: 38.7 µM (inactive) | GI50 [19]: > 100 µM (inactive) | GI50 [20]: > 100 µM (inactive) | GI50 [21]: 7.59 µM (inactive) | GI50 [22]: > 100 µM (inactive) | GI50 [23]: > 100 µM (inactive) | GI50 [24]: > 100 µM (inactive) | GI50 [25]: > 100 µM (inactive) | GI50 [26]: > 100 µM (inactive) | GI50 [27]: > 100 µM (inactive) | GI50 [28]: > 100 µM (inactive) | GI50 [29]: > 100 µM (inactive) | GI50 [30]: 71.4 µM (inactive) | GI50 [31]: > 100 µM (inactive) | GI50 [32]: > 100 µM (inactive) | GI50 [33]: > 100 µM (inactive) | GI50 [34]: > 100 µM (inactive) | GI50 [35]: > 100 µM (inactive) | GI50 [36]: 6.75 µM (inactive) | GI50 [37]: > 100 µM | GI50 [38]: > 100 µM (inactive) | GI50 [39]: > 100 µM (inactive) | GI50 [40]: > 100 µM (inactive) | GI50 [41]: > 100 µM (inactive) | GI50 [42]: 9.27 µM (inactive) | GI50 [43]: > 100 µM (inactive) | GI50 [44]: > 100 µM (inactive) | GI50 [45]: > 100 µM (inactive) | GI50 [46]: > 100 µM (inactive) | GI50 [47]: > 100 µM (inactive) | GI50 [48]: > 100 µM (inactive) | GI50 [49]: > 100 µM (inactive) | GI50 [50]: > 100 µM (inactive) | GI50 [51]: > 100 µM (inactive)

COC(=O)/C(C#N)=C1\NN=NN1c1ccc(OC)cc1
GI50 [1]: > 100 µM (inactive) | GI50 [2]: > 100 µM (inactive) | GI50 [4]: > 100 µM (inactive) | GI50 [5]: > 100 µM (inactive) | GI50 [6]: > 100 µM (inactive) | GI50 [8]: > 100 µM (inactive) | GI50 [10]: > 100 µM (inactive) | GI50 [11]: > 100 µM (inactive) | GI50 [12]: > 100 µM (inactive) | GI50 [13]: > 100 µM (inactive) | GI50 [14]: > 100 µM (inactive) | GI50 [15]: > 100 µM (inactive) | GI50 [16]: > 100 µM (inactive) | GI50 [17]: > 100 µM (inactive) | GI50 [19]: > 100 µM (inactive) | GI50 [52]: > 100 µM (inactive) | GI50 [22]: > 100 µM (inactive) | GI50 [53]: > 100 µM (inactive) | GI50 [23]: > 100 µM (inactive) | GI50 [24]: > 100 µM (inactive) | GI50 [54]: > 100 µM (inactive) | GI50 [25]: > 100 µM (inactive) | GI50 [26]: > 100 µM (inactive) | GI50 [27]: > 100 µM (inactive) | GI50 [28]: > 100 µM (inactive) | GI50 [29]: > 100 µM (inactive) | GI50 [30]: > 100 µM (inactive) | GI50 [31]: > 100 µM (inactive) | GI50 [32]: > 100 µM (inactive) | GI50 [55]: > 100 µM (inactive) | GI50 [33]: > 100 µM (inactive) | GI50 [56]: > 100 µM (inactive) | GI50 [34]: > 100 µM (inactive) | GI50 [35]: > 100 µM (inactive) | GI50 [36]: > 100 µM (inactive) | GI50 [37]: > 100 µM | GI50 [38]: > 100 µM (inactive) | GI50 [40]: > 100 µM (inactive) | GI50 [41]: > 100 µM (inactive) | GI50 [42]: > 100 µM (inactive) | GI50 [57]: > 100 µM (inactive) | GI50 [43]: > 100 µM (inactive) | GI50 [44]: > 100 µM (inactive) | GI50 [45]: > 100 µM (inactive) | GI50 [46]: > 100 µM (inactive) | GI50 [47]: > 100 µM (inactive) | GI50 [48]: > 100 µM (inactive) | GI50 [49]: > 100 µM (inactive) | GI50 [50]: > 100 µM (inactive) | GI50 [51]: > 100 µM (inactive)
